Assay results reported in US4789661A, “De-(acetylglucosaminyl)-di(dehydro)-deoxy teicoplanin derivatives” (Gruppo Lepetit S.p.A., priority 1985, dated 1988).
≈ marks a conversion by molar mass, not a printed value.

Legend:
[1] = tested on: E. Coli SKF 12140; assay: In vitro antimicrobial activity (MIC), standard dilution test; assay type: cell-based; conditions: inoculum about 10^4 CFU/ml, 18-24 h at 37° C.
Protocol: (§1) Isosensitest broth (Oxoid) and Todd-Hewitt broth (Difco) are used for growing staphylococci and streptococci, respectively. Broth cultures are diluted so that the final inoculum is about 10^4 colony forming units/ml (CFU/ml).

[2] = tested on: P. vulgaris ATCC 881; assay: as above; assay type: cell-based; conditions: inoculum about 10^4 CFU/ml, 18-24 h at 37° C.
Protocol: as §1

[3] = tested on: S. aureus ATCC 6538; assay: as above; assay type: cell-based; conditions: inoculum about 10^4 CFU/ml, 18-24 h at 37° C.
Protocol: as §1

[4] = tested on: S. aureus TOUR; assay: as above; assay type: cell-based; conditions: inoculum about 10^4 CFU/ml, 18-24 h at 37° C.
Protocol: as §1

[5] = tested on: S. epidermidis ATCC 12228; assay: as above; assay type: cell-based; conditions: inoculum about 10^4 CFU/ml, 18-24 h at 37° C.
Protocol: as §1

[6] = tested on: S. faecalis ATCC 7080; assay: as above; assay type: cell-based; conditions: inoculum about 10^4 CFU/ml, 18-24 h at 37° C.
Protocol: as §1

[7] = tested on: S. pneumoniae UC 41; assay: as above; assay type: cell-based; conditions: inoculum about 10^4 CFU/ml, 18-24 h at 37° C.
Protocol: as §1

[8] = tested on: S. pyogenes C 203; assay: as above; assay type: cell-based; conditions: inoculum about 10^4 CFU/ml, 18-24 h at 37° C.
Protocol: as §1

[9] = tested on: experimental infection in mice; assay: Experimental infection in mice (V. Arioli et al.); assay type: in vivo
Source text: In addition to their antibacterial activity in vitro, the compounds of the invention show also antibacterial activity in in vivo experimetns.

[10] = Acid-base titration (pKMCS) in 2-methoxyethanol/water 4:1; assay type: physicochemical; conditions: potentiometric; 2-methoxyethanol (Methyl Cellosolve)/water 4:1 (v/v)
Protocol: Acid-base titration (pKMCS) were carried out in 2-methoxyethanol (Methyl Cellosolve®) water 4:1 (v/v) solution, with 0.01 NaOH after addition of suitable amounts of 0.01N hcl. The equivalent weights (EW) given are corrected for the solvent content and the inorganic residue.

[11] = tested on: S. Simulans L 1142 (methicillin-resistant); assay: MIC in microtiter against coagulase-negative staphylococci, clinical isolates; assay type: cell-based; conditions: S. Simulans L 1142, methicillin-resistant clinical isolate, Iso-sensitest broth, approximately 10^4 CFU/ml
Protocol: (§2) In a representative experiment, compound III i.e. (35,52-di-dehydro-34-deoxy-teicoplanin aglycon) was tested against some clinically isolated coagulasenegative staphylococi. The results of the test, in comparison with teicoplanin, are reported below in Table VII, The MIC were determined in microtiter using Iso-sensitest broth (Oxoid Co.) and approximately 10^4 CFU/ml as the inoculum.

[12] = tested on: S. epidermidis L 1378; assay: as above; assay type: cell-based; conditions: S. epidermidis L 1378 clinical isolate, Iso-sensitest broth, approximately 10^4 CFU/ml
Protocol: as §2

[13] = tested on: S. haemoliticus L 1520 (methicillin-resistant); assay: as above; assay type: cell-based; conditions: S. haemoliticus L 1520, methicillin-resistant clinical isolate, Iso-sensitest broth, approximately 10^4 CFU/ml
Protocol: as §2

[14] = tested on: S. hominis L 1070; assay: as above; assay type: cell-based; conditions: S. hominis L 1070 clinical isolate, Iso-sensitest broth, approximately 10^4 CFU/ml
Protocol: as §2

[15] = tested on: S. simulans L 785 (methicillin-resistant); assay: as above; assay type: cell-based; conditions: S. simulans L 785, methicillin-resistant clinical isolate, Iso-sensitest broth, approximately 10^4 CFU/ml
Protocol: as §2

[16] = tested on: S. warneri L 1375; assay: as above; assay type: cell-based; conditions: S. warneri L 1375 clinical isolate, Iso-sensitest broth, approximately 10^4 CFU/ml
Protocol: as §2

## 42-α-D-mannosyl-56-N-acyl-β-D-glucosaminyl-35,52-didehydro-34-d eoxy-teicoplanin aglycon [Compound I]
[1]
  MIC: > 128 µg/mL
[2]
  MIC: > 128 µg/mL
[3]
  MIC: 0.5 µg/mL
[4]
  MIC: 0.5 µg/mL
[5]
  MIC: 0.25 µg/mL
[6]
  MIC: 1 µg/mL
[7]
  MIC: 0.06 µg/mL
[8]
  MIC: 0.06 µg/mL
[9]
  ED50: 0.35 mg/kg
[10]
  pKmcs (COOH): 5.0
  pKmcs (NH2): 6.9

## NC1C(=O)NC2Cc3ccc(c(Cl)c3)Oc3cc4cc(c3O)Oc3ccc(cc3Cl)C=C3NC(=O)C(NC(=O)C4NC(=O)C(NC2=O)c2cc(O)cc(c2)Oc2cc1ccc2O)c1ccc(O)c(c1)-c1c(O)cc(O)cc1C(C(=O)O)NC3=O (single isomer, unassigned) [Compound IV, (36,37-cis-51,52-trans)-34,35-didehydro-34-deoxy-teicoplanin-aglycon]
[1]
  MIC: > 128 µg/mL
[2]
  MIC: 128 µg/mL (≈ 108 µM)
[3]
  MIC: 1 µg/mL (≈ 0.847 µM)
[4]
  MIC: 1 µg/mL (≈ 0.847 µM)
[5]
  MIC: 0.12 µg/mL (≈ 0.102 µM)
[6]
  MIC: 8 µg/mL (≈ 6.77 µM)
[7]
  MIC: 4 µg/mL (≈ 3.39 µM)
[8]
  MIC: 4 µg/mL (≈ 3.39 µM)
[10]
  pKmcs (COOH): 4.8
  pKmcs (NH2): 7.1

## NC1C(=O)NC2Cc3ccc(c(Cl)c3)Oc3cc4cc(c3O)Oc3ccc(cc3Cl)C=C3NC(=O)C(NC(=O)C4NC(=O)C(NC2=O)c2cc(O)cc(c2)Oc2cc1ccc2O)c1ccc(O)c(c1)-c1c(O)cc(O)cc1C(C(=O)O)NC3=O (single isomer, unassigned) [Compound V, (36,37-trans-51,52-trans)-34,35-didehydro-34-deoxy-teicoplanin-aglycon]
[1]
  MIC: > 128 µg/mL
[2]
  MIC: > 128 µg/mL
[3]
  MIC: 2 µg/mL (≈ 1.69 µM)
[4]
  MIC: 4 µg/mL (≈ 3.39 µM)
[5]
  MIC: 0.4 µg/mL (≈ 0.339 µM)
[6]
  MIC: 16 µg/mL (≈ 13.5 µM)
[7]
  MIC: 8 µg/mL (≈ 6.77 µM)
[8]
  MIC: 8 µg/mL (≈ 6.77 µM)

## NC1C(=O)NC2Cc3ccc(c(Cl)c3)Oc3cc4cc(c3O)Oc3ccc(cc3Cl)CC3=NC(=O)C(NC(=O)C4NC(=O)C(NC2=O)c2cc(O)cc(c2)Oc2cc1ccc2O)c1ccc(O)c(c1)-c1c(O[C@H]2O[C@H](CO)[C@@H](O)[C@H](O)[C@@H]2O)cc(O)cc1C(C(=O)O)NC3=O (stereo partly drawn) [Compound II, 42-α-D-mannosyl-35,52-didehydro-34-deoxy-teicoplanin aglycon]
[1]
  MIC: > 128 µg/mL
[2]
  MIC: > 128 µg/mL
[3]
  MIC: 0.25 µg/mL (≈ 0.186 µM)
[4]
  MIC: 0.25 µg/mL (≈ 0.186 µM)
[5]
  MIC: 0.5 µg/mL (≈ 0.372 µM)
[6]
  MIC: 1 µg/mL (≈ 0.745 µM)
[7]
  MIC: 2 µg/mL (≈ 1.49 µM)
[8]
  MIC: 2 µg/mL (≈ 1.49 µM)
[9]
  ED50: 5.8 mg/kg
[10]
  pKmcs (COOH): 4.8
  pKmcs (NH2): 6.9

## NC1C(=O)NC2Cc3ccc(c(Cl)c3)Oc3cc4cc(c3O)Oc3ccc(cc3Cl)CC3=NC(=O)C(NC(=O)C4NC(=O)C(NC2=O)c2cc(O)cc(c2)Oc2cc1ccc2O)c1ccc(O)c(c1)-c1c(O)cc(O)cc1C(C(=O)O)NC3=O (centres unmarked) [Compound III, 35,52-didehydro-34-deoxy-teicoplanin aglycon]
[1]
  MIC: > 128 µg/mL
[2]
  MIC: > 128 µg/mL
[3]
  MIC: 0.25 µg/mL (≈ 0.212 µM)
[4]
  MIC: 0.25 µg/mL (≈ 0.212 µM)
[5]
  MIC: 0.12 µg/mL (≈ 0.102 µM)
[6]
  MIC: 1 µg/mL (≈ 0.847 µM)
[7]
  MIC: 1 µg/mL (≈ 0.847 µM)
[8]
  MIC: 1 µg/mL (≈ 0.847 µM)
[11]
  MIC: 0.125 µg/mL (≈ 0.106 µM)
[12]
  MIC: 0.125 µg/mL (≈ 0.106 µM)
[13]
  MIC: 0.5 µg/mL (≈ 0.423 µM)
[14]
  MIC: 0.125 µg/mL (≈ 0.106 µM)
[15]
  MIC: 0.125 µg/mL (≈ 0.106 µM)
[16]
  MIC: 1 µg/mL (≈ 0.847 µM)
[9]
  ED50: 5 mg/kg

## N[C@H]1C(=O)N[C@@H]2Cc3ccc(c(Cl)c3)Oc3cc4cc(c3O)Oc3ccc(cc3Cl)[C@@H](O)[C@@H]3NC(=O)[C@H](NC(=O)[C@@H]4NC(=O)[C@@H](NC2=O)c2cc(O)cc(c2)Oc2cc1ccc2O)c1ccc(O)c(c1)-c1c(O)cc(O)cc1[C@@H](C(=O)O)NC3=O [deglucoteicoplanin, reference compound]
[10]
  pKmcs (COOH): 4.9
  pKmcs (NH2): 6.9

## teicoplanin A2 [reference compound]
[10]
  pKmcs (COOH): 5.0
  pKmcs (NH2): 7.1

## teicoplanin [reference compound]
[11]
  MIC: 0.125 µg/mL
[12]
  MIC: 0.5 µg/mL
[13]
  MIC: 4 µg/mL
[14]
  MIC: 0.25 µg/mL
[15]
  MIC: 0.25 µg/mL
[16]
  MIC: 2 µg/mL
